In brackets after ≈: the same amount, converted by molar mass.
System: HIV
Test: Test of preparations against HIV in cell culture (T-cell culture assay)
Assay type: cell-based
Details: Human immunodeficiency virus 1, 72 h; lowest concentration where no giant cells were observed; HIV-infected lymphocytes from donor blood, 3 days at 37° C.
Procedure: Test of Preparations Against HIV in Cell Culture
Complete medium additionally contains 20% fetal calf serum and 40 IU/ml recombinant interleukin 2.
Lymphocytes which have been isolated from fresh donor blood by means of Ficoll gradient centrifugation are cultured for 36 hours in complete medium with an addition of 2 μg/ml phytohemagglutinin (Wellcome) at 37° C. under 5% of CO2. After 10% of DMSO has been added, the cells are frozen at a density of 5 [formula]10^6 and stored in liquid nitrogen. For the test, the cells are defrosted, washed in RPMI medium and cultured for 3-4 days in the complete medium.
The test preparations were dissolved in DMSO at a concentration of 16.7 mg/ml and diluted in complete medium to 1 mg/ml.
0.4 ml of medium was introduced into 24-multiwell dishes. 0.1 ml of the dissolved preparation was added to the upper row of the dish, and, by transferring 0.1 ml portions, a geometric dilution series was established. Controls without preparation always contained 0.4 ml of complete medium containing 0.5% of DMSO. Lymphocyte cultures with a cell density of 5 [formula]10^5 cells/ml were infected by adding 1/50 volume supernatant from HIV-infected lymphocyte cultures. The titer of these culture supernatants was determined by end-point titration as 1-5 [formula]10^6 infectious units/ml. After 30 minutes' incubation at 37° C., the infected lymphocytes were removed by centrifugation and taken up in an equal volume of medium. From this cell suspension, 0.6 ml aliquots were transferred into all wells of the test plate. The mixtures were incubated for 3 days at 37° C.
The infected cell cultures were examined under the microscope for the presence of giant cells, which indicate active virus multiplication in the culture. The lowest concentration of preparation where no giant cells were observed was determined as inhibitory concentration against HIV. As a control, the supernatants from the culture plates were tested for the presence of HIV antigen with the aid of an HIV antigen test following the manufacturer's instructions (Organon).

| SMILES | MIC [µg/mL] |
| --- | --- |
| CC(C)=CCN1c2ccccc2NC(=S)C1C (racemic) [Example 7-1, (3RS)-3-Methyl-4-N-(3-methyl-2-buten-1-yl)-3,4-dihydroquinoxaline-2(1H)-thione] | < 0.16 |
| CC(C)=CCN1c2cc(Cl)ccc2NC(=O)[C@H]1C [VI-B, (3R)-6-Chloro-3-methyl-4-N-(3-methyl-2-buten-1-yl)-3,4-dihydroquinoxalin-2(1H)-one] | 20 (≈ 75.5 µM) |

Target: T1, HIV reverse transcriptase (RT) (Human immunodeficiency virus type 1 group M subtype B, UniProt P03366)
T1 construct: The enzyme RT (from HIV cloned in E. coli); purchased HT-Biotechnology Ltd, Cambridge, UK; host or cells: E. coli
Test: Assay for HIV reverse transcriptase inhibition (scintillation proximity assay)
Assay type: biochemical
Details: not given
Procedure: Assay of the Substances for HIV Reverse Transcriptase Inhibition
The activity of reverse transcriptase (RT) was determined with the aid of a scintillation proximity assay (SPA).
The reagent kit for the RT-SPA was obtained from Amersham/Buchler (Braunschweig).
The enzyme RT (from HIV cloned in E. coli) originated from HT-Biotechnology Ltd, Cambridge, UK.
The assay was carried out using the manufacturer's (Amersham) protocol manual, with the following modifications: bovine serum albumin was added to the assay buffer to give an end concentration of 0.5 mg/ml the assay was carried out in Eppendorf reaction vessels, using 100 μl volume per batch the manufacturer's RT concentrate (5000 U/ml) was diluted in Tris-HCl buffer 20 mM; pH 7.2; 30% of glycerol, to an activity of 15 U per ml the incubation time for the mixtures was 60 minutes (37° C.) after stopping the reaction and “developing” with the bead suspension, 130 μl of mixture were transferred to 4.5 ml of Tris-HCl buffer, 10 mM; pH 7.4; 0.15 M NaCl, and the tritium activity was measured by means of a [formula]-counter.
For a pre-assay for inhibitory activity, the substances were dissolved in DMSO (stock solution c=1 mg/ml), and tested as a 10^−1, 10^−2, 10^−3, etc., dilution in DMSO.
To determine IC50 values, the inhibitor stock solutions were diluted further in Tris-HCl buffer, 50 mM, pH 8, and tested in suitable concentrations.
The concentration corresponding to a 50% enzyme inhibition was determined from a plot of RT activity versus log Clnh.

| SMILES | IC50 [nM] |
| --- | --- |
| CC(C)=CCN1c2ccccc2NC(=S)C1C (racemic) [Example 7-1, (3RS)-3-Methyl-4-N-(3-methyl-2-buten-1-yl)-3,4-dihydroquinoxaline-2(1H)-thione] | 325 |

Same assay, conditions: RT from HIV cloned in E. coli; SPA, 60 minutes (37° C.)

| SMILES | Reverse Transcriptase Assay IC50 |
| --- | --- |
| C=C(C)OC(=O)N1c2cc(Cl)ccc2NC(=O)C1CCC (stereo not shown) [Example 3-34] | 0.1 to 1 µg/mL |
| C=CCOC(=O)N1c2cc(Cl)ccc2NC(=O)C1CCC (stereo not shown) [Example 3-35] | 0.1 to 1 µg/mL |
| C=C(C)OC(=O)N1c2cc(Cl)ccc2NC(=O)C1C(C)C (stereo not shown) [Example 3-37] | 0.1 to 1 µg/mL |
| CSCC1C(=O)Nc2ccc(Cl)cc2N1C(=O)OC(C)C (stereo not shown) [Example 3-127] | 0.01 to 0.1 µg/mL |
| C=C(C)OC(=O)N1c2cc(OC)ccc2NC(=O)C1CSC (stereo not shown) [Example 3-128] | 0.01 to 0.1 µg/mL |
| COc1ccc2c(c1)N(C(=O)OC(C)C)C(CSC)C(=O)N2 (stereo not shown) [Example 3-129] | 0.01 to 0.1 µg/mL |
| C=C(C)OC(=O)N1c2cc(Cl)ccc2NC(=O)C1(C)C [Example 6-8] | 0.1 to 1 µg/mL |
| C=C(C)OC(=O)N1c2ccc(Cl)cc2NC(=O)C1(C)C [Example 6-9] | approx. 1 μg/ml |
| C=CCOC(=O)N1c2cc(Cl)ccc2NC(=S)C1CC (stereo not shown) [Example 7-15] | 0.01 to 0.1 µg/mL |
| C=C(C)OC(=O)N1c2cc(Cl)ccc2NC(=S)C1CCC (stereo not shown) [Example 7-17] | 0.01 to 0.1 µg/mL |
| C=CCOC(=O)N1c2cc(Cl)ccc2NC(=S)C1CCC (stereo not shown) [Example 7-18] | 0.01 to 0.1 µg/mL |
| CC1C(=S)Nc2ccc(Cl)cc2N1Cc1ccccn1 (stereo not shown) [Example 7-19] | 0.01 to 0.1 µg/mL |
| CC1C(=S)Nc2ccc(Cl)cc2N1Cc1cccnc1 (stereo not shown) [Example 7-20] | 0.1 to 1 µg/mL |
| CCOC(=O)N1c2cc(Cl)ccc2NC(=S)C1(C)C [Example 7-24] | <0.01 µg/mL |
| CCCOC(=O)N1c2cc(Cl)ccc2NC(=S)C1(C)C [Example 7-25] | <0.01 µg/mL |
| CCC1C(=S)Nc2ccc(Cl)cc2N1Cc1ccccn1 (stereo not shown) [Example 7-26] | 0.01 to 0.1 µg/mL |
| CSCC1C(=S)Nc2ccc(Cl)cc2N1C(=O)OC(C)C (stereo not shown) [Example 7-28] | <0.01 µg/mL |
| CSCC1C(=S)Nc2ccc(Cl)cc2N1Cc1ccccn1 (stereo not shown) [Example 7-29] | 0.01 to 0.1 µg/mL |
| C=C(C)OC(=O)N1c2cc(OC)ccc2NC(=S)C1CSC (stereo not shown) [Example 7-30] | <0.01 µg/mL |
| COc1ccc2c(c1)N(C(=O)OC(C)C)C(CSC)C(=S)N2 (stereo not shown) [Example 7-31] | <0.01 µg/mL |
| CC1C(=O)Nc2ccc(Cl)cc2N1Cc1ccsc1 (stereo not shown) [Example 10-34] | 0.1 to 1 µg/mL |
| CC1C(=O)Nc2ccc(Cl)cc2N1C(=O)SCc1ccccc1 (stereo not shown) [Example 11-5] | 0.1 to 1 µg/mL |
| C=CCSC(=O)N1c2cc(Cl)ccc2NC(=O)C1C (stereo not shown) [Example 11-6] | 0.1 to 1 µg/mL |
| C=C(C)COC(=O)N1c2cc(Cl)ccc2NC(=O)C1C (stereo not shown) [Example 11-7] | approx. 1 μg/ml |
| CSCCOC(=O)N1c2cc(Cl)ccc2NC(=O)C1C (stereo not shown) [Example 11-13] | approx. 1 μg/ml |
